# Target: IN05 HA trimer
# Assay type: binding, influenza A/Indonesia/5/2005 (H5 subtype)
substance,measurement,value
"α2,6-linked sialyl lactosamine [6-SLN]","KD,MST",no detectable binding

# From article PMC9367001 (Journal of Chemical Theory and Computation, 2022)
